{
  "source": "patent US12128114B2",
  "about": "“177Lu-DOTA-HYNIC-iPSMA as a therapeutic radiopharmaceutical targeting prostate-specific membrane antigen” (INSTITUTO NACIONAL DE INVESTIGACIONES NUCLEARES, priority 2018, dated 2024)",
  "key": {"protein PSMA": {"molecular_target": "T1, protein PSMA (Homo sapiens, UniProt Q04609)", "T1 construct": "saturation studies in cancer cells positive for the protein PSMA (LNCaP); endogenous in cells; host or cells: LNCaP", "T1 sequence (Q04609 whole entry)": "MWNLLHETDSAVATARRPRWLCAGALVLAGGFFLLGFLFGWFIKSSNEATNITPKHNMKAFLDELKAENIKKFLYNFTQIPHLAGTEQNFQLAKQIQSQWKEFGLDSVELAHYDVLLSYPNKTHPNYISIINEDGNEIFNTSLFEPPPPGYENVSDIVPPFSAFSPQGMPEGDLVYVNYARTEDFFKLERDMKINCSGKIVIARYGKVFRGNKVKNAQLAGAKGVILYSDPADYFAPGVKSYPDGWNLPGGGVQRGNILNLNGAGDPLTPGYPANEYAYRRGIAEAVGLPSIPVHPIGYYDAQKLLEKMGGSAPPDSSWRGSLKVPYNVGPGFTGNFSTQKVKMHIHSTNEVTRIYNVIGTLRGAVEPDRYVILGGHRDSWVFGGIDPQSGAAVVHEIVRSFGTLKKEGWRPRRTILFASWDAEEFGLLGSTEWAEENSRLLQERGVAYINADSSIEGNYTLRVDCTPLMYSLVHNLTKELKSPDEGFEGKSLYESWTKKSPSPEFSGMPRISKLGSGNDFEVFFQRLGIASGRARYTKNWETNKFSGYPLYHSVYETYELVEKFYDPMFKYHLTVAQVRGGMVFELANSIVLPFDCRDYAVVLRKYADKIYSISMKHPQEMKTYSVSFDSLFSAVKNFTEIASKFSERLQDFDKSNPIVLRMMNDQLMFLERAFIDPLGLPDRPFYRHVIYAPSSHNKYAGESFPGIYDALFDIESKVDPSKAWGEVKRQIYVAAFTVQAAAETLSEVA", "assay": "Saturation studies in cancer cells positive for the protein PSMA (LNCaP)", "format": "binding"}, "[1]": {"assay": "In vitro stability tests in human serum", "format": "in vitro ADME", "description": "(§1) The radiopharmaceutical remains stable, with a radiochemical purity of more than 98% for more than 7 days post-labelling. In vitro stability tests in human serum show a serum protein binding of 6.5±1.8% and a high radiochemical stability (>98%)."}, "[2]": {"assay": "Biokinetics and dosimetry in healthy subjects (whole-body images, OLINDA/EXM)", "format": "in vivo, human", "protocol": "To determine the biokinetics and dosimetry for the radiopharmaceutical, whole-body images were acquired for five healthy subjects at 20 mins and 6, 24, 48 and 120 h post-administration of ^177Lu-DOTA-HYNIC-iPSMA (185 MBq). The sequence of images was used to extrapolate the time-activity curves in each organ to adjust the biokinetic model and calculate the total number of disintegrations (N) that occurred in the source regions. The values of N were used in the OLINDA/EXM code to calculate the internal doses of radiation. […] Uptake and excretion is mainly renal, with lower hepatic uptake and high uptake in the […], salivary, and lachrymal glands. The average doses absorbed were 0.23, 0.28, 0.88, and 1.17 mGy/MBq for the spleen, liver, kidney, and salivary glands, respectively."}, "LNCaP-induced tumors": {"tested_on": "LNCaP-induced tumors", "assay": "Biodistribution assays in nude mice with LNCaP-induced tumors", "format": "in vivo"}, "[3]": {"assay": "Stability of the radiopharmaceutical post-labelling (radiochemical purity)", "format": "physicochemical", "details": "for more than 7 days post-labelling", "protocol": "After reconstitution in 1.1 mL sodium acetate 1 M buffer solution pH 5.0 containing the sterile and pyrogen-free solution of lutetium-177 chloride (^177LuCl3) and incubation in a dry bath at 95° C. for 30 minutes, said formulation gave a clear, aqueous solution of the compound to be patented ^177Lu-DOTA-HYNIC-iPSMA (FIG. 1) with a radiochemical purity of more than 98%, as determined by reverse-phase HPLC, which presents the radio-chromatogram shown in FIG. 3.\nas §1"}, "[4]": {"assay": "Toxicity in balb-C laboratory mice", "format": "in vivo", "details": "dose of 40 mg/kg"}, "[5]": {"tested_on": "metastatic prostate cancer lesions", "assay": "Radiotherapeutic potential in prostate cancer patients (68Ga-PSMA-11 PET/CT and serum PSA)", "format": "in vivo, human", "protocol": "To evaluate the radiotherapeutic potential, between one and four cycles of ^177Lu-DOTA-HYNIC-iPSMA (3.7 or 7.4 GBq) were administered to 11 patients (mean age: 66 years; range: 45-86) every 8-10 weeks. The response was evaluated using images with ^68Ga-PSMA-11 PET/CT (radiopharmaceutical with a proven affinity in clinical practice and a high-resolution technique for the specific detection of metastatic prostate cancer lesions) and determining serum prostate-specific antigen (PSA) levels before and after treatment."}, "prostate cancer": {"tested_on": "prostate cancer", "details": "clinical studies, literature; cited from earlier work"}},
  "data": [
    {"compound": "O=C(O)CCC(NC(=O)NC(CCCCNC(=O)C(Cc1ccc2ccccc2c1)NC(=O)c1ccc(NNC(=O)CN2CCN3CCN4CCN(CC2)CC(=O)[O][177Lu]([O]C(=O)C3)[O]C(=O)C4)nc1)C(=O)O)C(=O)O", "note": "(centres unmarked) [177Lu-DOTA-HYNIC-iPSMA]", "values": [
      {"measurement": "maximum number of binding sites (Bmax)", "setting": "protein PSMA", "result": "5.89 ± 0.47", "unit": "nM"},
      {"measurement": "radiochemical stability", "setting": "[1]", "result": "more than 98%"},
      {"measurement": "serum protein binding", "setting": "[1]", "result": "6.5±1.8", "unit": "%"},
      {"measurement": "average dose absorbed, kidney", "setting": "[2]; healthy subjects, kidney", "result": 0.88, "unit": "mGy/MBq"},
      {"measurement": "average dose absorbed, liver", "setting": "[2]; healthy subjects, liver", "result": 0.28, "unit": "mGy/MBq"},
      {"measurement": "average dose absorbed, salivary glands", "setting": "[2]; healthy subjects, salivary glands", "result": 1.17, "unit": "mGy/MBq"},
      {"measurement": "average dose absorbed, spleen", "setting": "[2]; healthy subjects, spleen", "result": 0.23, "unit": "mGy/MBq"},
      {"measurement": "uptake and excretion", "setting": "[2]; healthy volunteers", "result": "mainly renal"},
      {"measurement": "half life, second slow component (T1/2γ)", "setting": "[2]; healthy volunteers, 185 MBq, ln 2/0.008", "result": 79.6, "unit": "h"},
      {"measurement": "half life, first slow component (T1/2β)", "setting": "[2]; healthy volunteers, 185 MBq, ln 2/0.075", "result": 9.2, "unit": "h"},
      {"measurement": "half life, fast component (T1/2α)", "setting": "[2]; healthy volunteers, 185 MBq, ln 2/0.614", "result": 1.1, "unit": "h"},
      {"measurement": "elimination pathway", "setting": "LNCaP-induced tumors", "result": "mainly renal"},
      {"measurement": "uptake in tumors, % of the activity administered per gram of tissue", "setting": "LNCaP-induced tumors", "result": "9.74±1.13", "unit": "% ID/g"},
      {"measurement": "radiochemical purity (stability post-labelling)", "setting": "[3]", "result": "more than 98%"},
      {"measurement": "toxicity or adverse effects", "setting": "[4]", "result": "did not present toxicity or adverse effects"},
      {"measurement": "patients exhibiting a reduction in PSA", "setting": "[5]; 11 patients, one to four cycles of 3.7 or 7.4 GBq every 8-10 weeks", "result": "Around 60%"},
      {"measurement": "patients with a reduction in the number and size of metastatic lesions and/or uptake intensity, by imaging", "setting": "[5]; 11 patients, one to four cycles of 3.7 or 7.4 GBq, 68Ga-PSMA-11 PET/CT", "result": 70, "unit": "%"},
      {"measurement": "metastatic lesion sites on 68Ga-PSMA-11 PET follow-up", "setting": "[5]; one patient, three cycles of treatment (FIG. 6)", "result": "decrease in size and number"}
    ]},
    {"compound": "O=C(O)CCC(NC(=O)NC(CCCCNC(=O)C(Cc1ccc2ccccc2c1)NC(=O)c1ccc(NNC(=O)CN2CCN3CCN4CCN(CC2)CC(=O)[O][Lu]([O]C(=O)C3)[O]C(=O)C4)nc1)C(=O)O)C(=O)O", "note": "(centres unmarked) [177Lu-DOTA-HYNIC-iPSMA]", "values": [
      {"measurement": "Kd", "setting": "protein PSMA", "result": "6.33 ± 2.69", "unit": "nM"}
    ]},
    {"compound": "O=C([O-])CN1CCN(CC(=O)[O-])CCN(CC(=O)NCC2CCC(C(=O)N[C@@H](Cc3ccc4ccccc4c3)C(=O)NCCCC[C@H](NC(=O)N[C@@H](CCC(=O)O)C(=O)O)C(=O)O)CC2)CCN(CC(=O)[O-])CC1.[177Lu+3]", "note": "(some centres unmarked) [Lu-PSMA-617]", "values": [
      {"measurement": "side-effects", "setting": "prostate cancer", "result": "no severe side-effects"}
    ]}
  ]
}
